Source: patent publication US7880007B2, “Bicyclic substituted phenyl piperidine modulators of muscarinic receptors” (Vertex Pharmaceuticals Incorporated, priority 2004, dated 2011)

Experiments:
Format in all cases: cell-based
[1] = target: T1, M3 muscarinic receptor (Homo sapiens, UniProt P20309); assay: Functional mobilization of intracellular calcium (FLIPR), M3-CHO cells; conditions: for M3 Activity: M3-CHO cells, calcium mobilization (FLIPR)
T1 construct: expressed in transfected cells; host or cells: CHO (M3-CHO)
In short: (§1)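 Calcium mobilisation read by FLIPR over 60 s (ex 488/em 540 nm) in recombinant muscarinic CHO lines loaded with calcium dye plus 1 mM probenecid. Compounds tested as agonists alone, or as inhibitors against EC80 carbachol after 15 min pre-incubation or co-addition; 0.5% DMSO; efficacy scaled to carbachol maximal response.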

[2] = target: T2, M4 muscarinic receptor (Homo sapiens, UniProt P08173); assay: Functional mobilization of intracellular calcium (FLIPR), M4-CHO cells; conditions: for M4 Activity: M4-CHO cells, calcium mobilization (FLIPR)
T2 construct: expressed in transfected cells; host or cells: CHO (M4-CHO)
T2 sequence (P08173 1-479): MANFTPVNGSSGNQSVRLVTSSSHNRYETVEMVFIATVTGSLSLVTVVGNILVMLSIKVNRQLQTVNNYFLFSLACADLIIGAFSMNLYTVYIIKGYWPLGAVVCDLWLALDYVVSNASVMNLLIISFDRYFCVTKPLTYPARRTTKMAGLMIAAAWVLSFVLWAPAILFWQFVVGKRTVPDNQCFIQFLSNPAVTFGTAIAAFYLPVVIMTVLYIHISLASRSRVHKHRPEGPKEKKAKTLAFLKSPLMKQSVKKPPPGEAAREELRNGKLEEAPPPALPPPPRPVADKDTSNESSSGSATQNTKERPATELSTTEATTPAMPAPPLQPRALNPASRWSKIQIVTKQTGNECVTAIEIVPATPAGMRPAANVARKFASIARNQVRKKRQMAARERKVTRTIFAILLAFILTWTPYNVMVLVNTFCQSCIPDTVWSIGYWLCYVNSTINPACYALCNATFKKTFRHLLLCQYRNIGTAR
In short: as §1

[3] = target: T3, M2 muscarinic receptor (Homo sapiens, UniProt P08172); assay: Functional mobilization of intracellular calcium (FLIPR), M2-CHO cells; conditions: for M2 Activity: M2-CHO cells, calcium mobilization (FLIPR)
T3 construct: expressed in transfected cells; host or cells: CHO (M2-CHO)
T3 sequence (P08172 1-466): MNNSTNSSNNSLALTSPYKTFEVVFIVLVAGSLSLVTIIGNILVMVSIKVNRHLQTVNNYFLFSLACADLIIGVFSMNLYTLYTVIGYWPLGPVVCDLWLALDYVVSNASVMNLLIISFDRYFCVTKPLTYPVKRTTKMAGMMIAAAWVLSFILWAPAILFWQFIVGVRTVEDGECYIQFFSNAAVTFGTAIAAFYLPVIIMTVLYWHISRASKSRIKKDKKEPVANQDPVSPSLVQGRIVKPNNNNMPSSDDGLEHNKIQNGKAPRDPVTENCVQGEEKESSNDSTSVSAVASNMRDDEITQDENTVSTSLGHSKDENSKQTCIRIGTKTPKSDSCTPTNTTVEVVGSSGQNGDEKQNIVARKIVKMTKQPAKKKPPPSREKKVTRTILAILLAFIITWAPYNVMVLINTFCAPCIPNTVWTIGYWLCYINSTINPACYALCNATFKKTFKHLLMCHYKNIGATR
In short: as §1

[4] = target: T4, M1 muscarinic receptor (Homo sapiens, UniProt P11229); assay: Functional mobilization of intracellular calcium (FLIPR), M1-CHO cells; conditions: for M1 Activity: M1-CHO cells, calcium mobilization (FLIPR)
T4 construct: expressed in transfected cells; host or cells: CHO (M1-CHO)
T4 sequence (P11229 1-460): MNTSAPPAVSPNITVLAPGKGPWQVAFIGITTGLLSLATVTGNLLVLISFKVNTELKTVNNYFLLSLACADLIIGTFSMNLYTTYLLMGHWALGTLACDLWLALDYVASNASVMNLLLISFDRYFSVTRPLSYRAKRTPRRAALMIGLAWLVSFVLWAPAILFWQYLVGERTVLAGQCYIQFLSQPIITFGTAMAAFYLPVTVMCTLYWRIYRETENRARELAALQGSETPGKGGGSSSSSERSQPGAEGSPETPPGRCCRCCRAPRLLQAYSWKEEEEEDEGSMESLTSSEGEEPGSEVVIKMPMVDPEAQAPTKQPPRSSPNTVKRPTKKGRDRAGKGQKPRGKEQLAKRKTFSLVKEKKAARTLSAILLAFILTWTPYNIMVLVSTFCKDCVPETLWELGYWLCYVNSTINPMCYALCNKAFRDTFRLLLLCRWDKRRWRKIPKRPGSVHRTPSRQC
In short: as §1

[5] = 100% efficacy = maximum response obtained with the Carbachol control
[6] = 100% efficacy is the maximum response obtained with the Carbachol control

T1 sequence (P20309 whole entry): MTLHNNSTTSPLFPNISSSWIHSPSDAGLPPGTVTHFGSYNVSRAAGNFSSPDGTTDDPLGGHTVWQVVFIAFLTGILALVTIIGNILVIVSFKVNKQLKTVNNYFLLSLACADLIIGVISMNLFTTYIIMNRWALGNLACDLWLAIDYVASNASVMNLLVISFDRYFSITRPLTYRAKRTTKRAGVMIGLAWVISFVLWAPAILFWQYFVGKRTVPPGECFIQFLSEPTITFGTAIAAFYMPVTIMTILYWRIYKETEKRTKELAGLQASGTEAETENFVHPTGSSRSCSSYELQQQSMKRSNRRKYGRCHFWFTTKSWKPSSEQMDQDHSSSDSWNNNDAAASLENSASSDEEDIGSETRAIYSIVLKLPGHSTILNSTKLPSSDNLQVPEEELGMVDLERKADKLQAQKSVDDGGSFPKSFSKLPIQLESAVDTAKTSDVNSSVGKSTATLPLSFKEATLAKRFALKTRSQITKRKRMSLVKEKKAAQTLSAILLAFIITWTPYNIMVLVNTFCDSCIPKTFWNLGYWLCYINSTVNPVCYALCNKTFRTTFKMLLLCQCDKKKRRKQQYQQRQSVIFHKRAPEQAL

Row | SMILES | Emax [1, 5] [%] | M3 Activity [1] | Emax [2, 5] [%] | M4 Activity [2] | Emax [3, 5] [%] | M2 Activity [3] | Emax [4, 5] [%] | M1 Activity [4] | Emax [1, 6] [%] | Emax [2, 6] [%] | Emax [3, 6] [%] | Emax [4, 6] [%]
1 | COc1ccccc1C1CCN(CC2CCCCC2)CC1 [Compound 320] | < 25 | + (activity was measured to be greater than 5.0 μM) | 25 to 100 | ++ (activity was measured to be from 1.0 μM to 5.0 μM) | < 25 | + (activity was measured to be greater than 5.0 μM) | < 25 | + (activity was measured to be greater than 5.0 μM) |  |  |  | 
2 | Cc1ccc(C)c(C2CCN(CC3CC4C=CC3C4)CC2)c1 (centres unmarked) [Compound 329] |  | + (activity was measured to be greater than 5.0 μM) | 25 to 100 | ++ (activity was measured to be from 1.0 μM to 5.0 μM) | < 25 | + (activity was measured to be greater than 5.0 μM) | 25 to 100 | + (activity was measured to be greater than 5.0 μM) |  |  |  | 
3 | COc1ccc(Cl)cc1C1(F)CCN(C2C3CCCC2CCC3)CC1 (centres unmarked) [Compound 74] | < 25 | + (activity was measured to be greater than 5.0 μM) | < 25 | + (activity was measured to be greater than 5.0 μM) | < 25 | + (activity was measured to be greater than 5.0 μM) | < 25 | + (activity was measured to be greater than 5.0 μM) |  |  |  | 
4 | COc1ccccc1C1CCN(C2CCC[C@@H](C)C2)CC1 (some centres unmarked) [Compound 38] | < 25 | + (activity was measured to be greater than 5.0 μM) | 25 to 100 | +++ (activity was measured to be less than 1.0 μM) | < 25 | + (activity was measured to be greater than 5.0 μM) | < 25 | + (activity was measured to be greater than 5.0 μM) |  |  |  | 
5 | COc1ccc(Cl)cc1C1(OC)CCN(CC2CCOCC2)CC1 [Compound 123] | < 25 | + (activity was measured to be greater than 5.0 μM) | < 25 | + (activity was measured to be greater than 5.0 μM) | < 25 | + (activity was measured to be greater than 5.0 μM) | 25 to 100 | ++ (activity was measured to be from 1.0 μM to 5.0 μM) |  |  |  | 
6 | CCCC1CCC(N2CCC(F)(c3cc(Cl)ccc3OC)CC2)CC1 (centres unmarked) [Compound 365] | < 25 | + (activity was measured to be greater than 5.0 μM) | 25 to 100 | + (activity was measured to be greater than 5.0 μM) | 25 to 100 | + (activity was measured to be greater than 5.0 μM) | 25 to 100 | + (activity was measured to be greater than 5.0 μM) |  |  |  | 
7 | COc1ccc(-c2ccc([S+](C)[O-])cc2)cc1C1CCN(C2CCOCC2)CC1 (centres unmarked) [Compound 22] | < 25 | + (activity was measured to be greater than 5.0 μM) | < 25 | + (activity was measured to be greater than 5.0 μM) | < 25 | + (activity was measured to be greater than 5.0 μM) | < 25 | + (activity was measured to be greater than 5.0 μM) |  |  |  | 
8 | COc1ccccc1C1CCN(C2CCC(OC(=O)c3ccccc3)CC2)CC1 (centres unmarked) [Compound 410] |  | + (activity was measured to be greater than 5.0 μM) |  | ++ (activity was measured to be from 1.0 μM to 5.0 μM) |  | + (activity was measured to be greater than 5.0 μM) |  | + (activity was measured to be greater than 5.0 μM) | < 25 | 25 to 100 | < 25 | < 25
9 | COc1ccc(-c2ccccc2)cc1C1CCN([C@H]2C[C@H]3CC[C@H]2C3)CC1 [Compound 168] | < 25 | + (activity was measured to be greater than 5.0 μM) | 25 to 100 | + (activity was measured to be greater than 5.0 μM) | < 25 | + (activity was measured to be greater than 5.0 μM) | < 25 | + (activity was measured to be greater than 5.0 μM) |  |  |  | 
10 | Cc1ccc(-c2ccccc2C2CCN([C@H]3C[C@H]4CC[C@H]3C4)CC2)c(C)c1 [Compound 386] |  | + (activity was measured to be greater than 5.0 μM) |  | + (activity was measured to be greater than 5.0 μM) |  | + (activity was measured to be greater than 5.0 μM) |  | + (activity was measured to be greater than 5.0 μM) | < 25 | 25 to 100 | < 25 | < 25
11 | COc1cc(F)ccc1C1CCN(C2CCOCC2)CC1 [Compound 349] | < 25 | + (activity was measured to be greater than 5.0 μM) | 25 to 100 | +++ (activity was measured to be less than 1.0 μM) | < 25 | + (activity was measured to be greater than 5.0 μM) | 25 to 100 | + (activity was measured to be greater than 5.0 μM) |  |  |  | 
12 | Clc1cccc(C2CCN(C3CC4CCC(C4)C3)CC2)c1 (centres unmarked) [Compound 133] | < 25 | + (activity was measured to be greater than 5.0 μM) | 25 to 100 | +++ (activity was measured to be less than 1.0 μM) | < 25 | + (activity was measured to be greater than 5.0 μM) | 25 to 100 | + (activity was measured to be greater than 5.0 μM) |  |  |  | 
